For 7 molecules, TGI results are on record in PubChem BioAssay (NCI).

Among the test systems are MDA-N; HCC-2998 colon; CCRF-CEM leukemia; 786-0 renal; SNB-75 CNS; LOX IMVI melanoma; EKVX NSCLC; HOP-62 NSCLC; SF-539 CNS; DU-145 prostate; SF-268 CNS; SK-OV-3 ovarian; TK-10 renal; U251 CNS; SF-295 CNS; SNB-19 CNS; A549 NSCLC; NCI-H23 lung; NCI-H522 lung; RXF 393 renal.
Assay in all cases: growth of human tumour cells (NCI), 48 h

Structures are written as SMILES.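 Each compound was tested at five concentrations against cells in 96-well plates for 48 hours. At the TGI there is no net growth.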 Where a SMILES comes first, the peptide text is derived from it. Where only a bound is given, the exact number is not on record here.

`O=C(Cc1ccccc1)NNc1nc(NNC(=O)c2ccncc2)nc(Nc2ccccc2)n1`: the TGI in the assay on MDA-N, in the assay on HCC-2998 colon, in the assay on CCRF-CEM leukemia, with 786-0 renal, with SNB-75 CNS and with LOX IMVI melanoma was above 10 µM throughout. Moreover, the TGI with EKVX NSCLC, in the assay on HOP-62 NSCLC, in the assay with SF-539 CNS, in the assay with DU-145 prostate, with SF-268 CNS and in the assay on SK-OV-3 ovarian was above 10 µM in each case. Moreover, the TGI with TK-10 renal and with U251 CNS was above 10 µM throughout.
Turning to `COc1ccc2oc(=O)c3c(c2c1C)OC(C)(C)C=C3`, the TGI in the assay on MDA-N, with HCC-2998 colon, in the assay on CCRF-CEM leukemia, in the assay on 786-0 renal, in the assay on SNB-75 CNS and with SF-295 CNS was above 100 µM each time. Also, the TGI with LOX IMVI melanoma, in the assay on EKVX NSCLC, with SNB-19 CNS, in the assay with HOP-62 NSCLC, with SF-539 CNS and in the assay on DU-145 prostate was above 100 µM in each case. Further, the TGI in the assay with SF-268 CNS, in the assay with A549 NSCLC, in the assay with NCI-H23 lung, in the assay with SK-OV-3 ovarian, with NCI-H522 lung and with TK-10 renal was above 100 µM each time. The same molecule displayed a TGI in the assay on U251 CNS above 100 µM.
`O=C(Nc1sccc1S(=O)(=O)c1ccc(Cl)cc1)C(F)(F)F`: the TGI is 77.3 µM in the assay with MDA-N; above 100 µM in the assay on HCC-2998 colon; above 100 µM with 786-0 renal; 71.6 µM in the assay on SNB-75 CNS; above 100 µM in the assay on SF-295 CNS; above 100 µM in the assay with LOX IMVI melanoma. The TGI is above 100 µM in the assay with EKVX NSCLC; above 100 µM in the assay with SNB-19 CNS; above 100 µM in the assay on HOP-62 NSCLC; 93.7 µM in the assay on SF-539 CNS; above 100 µM in the assay on DU-145 prostate; 83.6 µM in the assay with SF-268 CNS. For the same molecule, the TGI in the assay on A549 NSCLC, in the assay with NCI-H23 lung, with SK-OV-3 ovarian, with NCI-H522 lung, with TK-10 renal and in the assay on U251 CNS was above 100 µM in each case.
In the case of `CC(=O)NC(CS)C(=O)NC(CO)C(=O)NC(CO)C(=O)NC(Cc1c[nH]c2ccccc12)C(=O)N1CCCC1C(=O)NC(CO)C(=O)NC(Cc1c[nH]c2ccccc12)C(=O)NC(Cc1c[nH]cn1)C(=O)NC(CO)C(=O)NC(Cc1c[nH]c2ccccc12)C(=O)NCC(=O)NCC(=O)NC(CC(=O)O)C(=O)NC(CCC(N)=O)C(=O)NC(CCCCN)C(=O)NC(Cc1ccccc1)C(=O)NC(CCCNC(=N)N)C(=O)NC(CCCCN)C(N)=O` (configuration not stated) (Ac-CSSWPSWHSWGGDQKFRK-NH2; configuration not given here), the TGI with MDA-N, in the assay on CCRF-CEM leukemia, with 786-0 renal, in the assay on SNB-75 CNS, with SF-295 CNS and in the assay with LOX IMVI melanoma was above 25 µM in each case. Further, the TGI in the assay with EKVX NSCLC, in the assay on SNB-19 CNS, in the assay on HOP-62 NSCLC, with SF-539 CNS, with DU-145 prostate and in the assay with SF-268 CNS was above 25 µM throughout. In addition, the TGI with A549 NSCLC, in the assay with NCI-H23 lung, in the assay on SK-OV-3 ovarian, in the assay on NCI-H522 lung, with TK-10 renal and with RXF 393 renal was above 25 µM in each case. Further, in the assay on U251 CNS, the TGI was above 25 µM.
As for `COc1c(C)c(C/C=C(\C)CCCCO)c(OC)c(OC)c1OC`, the TGI in the assay with MDA-N is above 100 µM; with CCRF-CEM leukemia it was above 100 µM; with 786-0 renal, above 100 µM; with SNB-75 CNS it was above 100 µM; in the assay on SF-295 CNS, above 100 µM; in the assay on LOX IMVI melanoma it was 61.2 µM. Moreover, the TGI in the assay on EKVX NSCLC, in the assay with SNB-19 CNS, with HOP-62 NSCLC, with SF-539 CNS, in the assay with DU-145 prostate and with SF-268 CNS was above 100 µM each time. For the same molecule, the TGI in the assay on A549 NSCLC was 69.6 µM; with NCI-H23 lung, above 100 µM; in the assay with SK-OV-3 ovarian it was above 100 µM; in the assay with NCI-H522 lung, above 100 µM; in the assay on TK-10 renal, above 100 µM; with RXF 393 renal, above 100 µM. The TGI with U251 CNS was above 100 µM.
On to `CC(C)c1c(O[Si](C(C)C)(C(C)C)C(C)C)c2c3c(ccc4c3c1OC4(C)C)C(C)CC2` (configuration not stated), for which the TGI with MDA-N, in the assay with CCRF-CEM leukemia, in the assay on 786-0 renal, in the assay with SNB-75 CNS, in the assay on SF-295 CNS and in the assay with LOX IMVI melanoma was above 100 µM throughout. Also, the TGI in the assay with EKVX NSCLC, with SNB-19 CNS, in the assay with HOP-62 NSCLC, in the assay with SF-539 CNS, in the assay with DU-145 prostate and in the assay on SF-268 CNS was above 100 µM each time. Further, the TGI in the assay on A549 NSCLC, with NCI-H23 lung, in the assay on SK-OV-3 ovarian, with NCI-H522 lung, in the assay on TK-10 renal and in the assay on RXF 393 renal was above 100 µM throughout. For the same molecule, the TGI in the assay with U251 CNS was above 100 µM.
As to `Nc1nc(Cl)cc(NCC2(CO)CCC(O)C2)n1` (configuration not stated), the TGI in the assay with MDA-N, with CCRF-CEM leukemia, with 786-0 renal, in the assay on SNB-75 CNS, with SF-295 CNS and in the assay on LOX IMVI melanoma was above 100 µM each time. Also, the TGI in the assay with EKVX NSCLC, with SNB-19 CNS, in the assay on HOP-62 NSCLC, in the assay on SF-539 CNS, in the assay on DU-145 prostate and in the assay with SF-268 CNS was above 100 µM throughout. In addition, the TGI with A549 NSCLC, in the assay on NCI-H23 lung, in the assay on SK-OV-3 ovarian, in the assay on NCI-H522 lung, with TK-10 renal and with RXF 393 renal was above 100 µM throughout. This molecule also came in with a TGI in the assay with U251 CNS above 100 µM.
